{"source": "ChEMBL document CHEMBL1201862", "about": "“PubChem BioAssay data set” (2004)", "assay_in_all_cases": "NCI-60 cell line screen, 48 h", "key": {"SNB-19": {"tested_on": "SNB-19"}, "SF-295": {"tested_on": "SF-295"}, "SN12C": {"tested_on": "SN12C"}, "M14": {"tested_on": "M14"}, "A549": {"tested_on": "A549"}, "T47D": {"tested_on": "T47D"}, "786-0": {"tested_on": "786-0"}, "Hs-578T": {"tested_on": "Hs-578T"}, "SF-539": {"tested_on": "SF-539"}, "NCI/ADR-RES": {"tested_on": "NCI/ADR-RES"}, "SF-268": {"tested_on": "SF-268"}, "HCC 2998": {"tested_on": "HCC 2998"}, "IGROV-1": {"tested_on": "IGROV-1"}, "TK-10": {"tested_on": "TK-10"}, "CCRF-CEM": {"tested_on": "CCRF-CEM"}, "HCT-15": {"tested_on": "HCT-15"}, "PC-3": {"tested_on": "PC-3"}, "OVCAR-5": {"tested_on": "OVCAR-5"}, "SK-MEL-2": {"tested_on": "SK-MEL-2"}, "OVCAR-3": {"tested_on": "OVCAR-3"}, "MOLT-4": {"tested_on": "MOLT-4"}, "NCI-H23": {"tested_on": "NCI-H23"}, "HCT-116": {"tested_on": "HCT-116"}, "A498": {"tested_on": "A498"}, "COLO 205": {"tested_on": "COLO 205"}, "SNB-75": {"tested_on": "SNB-75"}, "UACC-257": {"tested_on": "UACC-257"}, "RXF 393": {"tested_on": "RXF 393"}, "CAKI-1": {"tested_on": "CAKI-1"}, "UO-31": {"tested_on": "UO-31"}, "MDA-MB-231": {"tested_on": "MDA-MB-231"}, "DU-145": {"tested_on": "DU-145"}, "NCI-H460": {"tested_on": "NCI-H460"}, "KM12": {"tested_on": "KM12"}, "SK-OV-3": {"tested_on": "SK-OV-3"}, "ACHN": {"tested_on": "ACHN"}, "U-251": {"tested_on": "U-251"}, "MDA-N": {"tested_on": "MDA-N"}, "LOX IMVI": {"tested_on": "LOX IMVI"}, "MCF7": {"tested_on": "MCF7"}, "UACC-62": {"tested_on": "UACC-62"}, "MDA-MB-435": {"tested_on": "MDA-MB-435"}, "HT-29": {"tested_on": "HT-29"}, "NCI-H522": {"tested_on": "NCI-H522"}, "SR": {"tested_on": "SR"}, "RPMI-8226": {"tested_on": "RPMI-8226"}, "Malme-3M": {"tested_on": "Malme-3M"}, "HOP-62": {"tested_on": "HOP-62"}, "OVCAR-8": {"tested_on": "OVCAR-8"}, "K562": {"tested_on": "K562"}, "OVCAR-4": {"tested_on": "OVCAR-4"}, "HL-60": {"tested_on": "HL-60"}, "SK-MEL-28": {"tested_on": "SK-MEL-28"}, "SK-MEL-5": {"tested_on": "SK-MEL-5"}, "EKVX": {"tested_on": "EKVX"}, "NCI-H226": {"tested_on": "NCI-H226"}, "SW-620": {"tested_on": "SW-620"}}, "note": "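Test compounds were applied to cells in 96-well plates for 48 hours at 5 doses. GI50: concentration for 50% inhibition of growth.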 Calls of active or inactive are those of the source. No stated cut-off is given here; in the data, active = GI50 up to about 1.1 µM and inactive = higher."}
{"smiles": "CC(=O)OCC1OC(N2C(c3ccccc3)=CC(c3cccs3)C(C#N)=C2S)C(OC(C)=O)C(OC(C)=O)C1OC(C)=O", "note": "(stereo unspecified)", "values": [{"measurement": "GI50", "setting": "SNB-19", "value": "47.3 µM (inactive)"}, {"measurement": "GI50", "setting": "SF-295", "value": "> 100 µM (inactive)"}, {"measurement": "GI50", "setting": "SN12C", "value": "> 100 µM (inactive)"}, {"measurement": "GI50", "setting": "M14", "value": "1.84 µM (inactive)"}, {"measurement": "GI50", "setting": "A549", "value": "> 100 µM (inactive)"}, {"measurement": "GI50", "setting": "T47D", "value": "> 100 µM (inactive)"}, {"measurement": "GI50", "setting": "786-0", "value": "2.55 µM (inactive)"}, {"measurement": "GI50", "setting": "Hs-578T", "value": "2.47 µM (inactive)"}, {"measurement": "GI50", "setting": "SF-539", "value": "2.34 µM (inactive)"}, {"measurement": "GI50", "setting": "NCI/ADR-RES", "value": "> 100 µM (inactive)"}, {"measurement": "GI50", "setting": "SF-268", "value": "4.49 µM (inactive)"}, {"measurement": "GI50", "setting": "HCC 2998", "value": "> 100 µM (inactive)"}, {"measurement": "GI50", "setting": "IGROV-1", "value": "> 100 µM (inactive)"}, {"measurement": "GI50", "setting": "TK-10", "value": "> 100 µM (inactive)"}, {"measurement": "GI50", "setting": "CCRF-CEM", "value": "> 100 µM (inactive)"}, {"measurement": "GI50", "setting": "HCT-15", "value": "> 100", "unit": "µM"}, {"measurement": "GI50", "setting": "PC-3", "value": "> 100 µM (inactive)"}, {"measurement": "GI50", "setting": "OVCAR-5", "value": "4.92 µM (inactive)"}, {"measurement": "GI50", "setting": "SK-MEL-2", "value": "> 100 µM (inactive)"}, {"measurement": "GI50", "setting": "OVCAR-3", "value": "> 100 µM (inactive)"}, {"measurement": "GI50", "setting": "MOLT-4", "value": "> 100 µM (inactive)"}, {"measurement": "GI50", "setting": "NCI-H23", "value": "5.18 µM (inactive)"}, {"measurement": "GI50", "setting": "HCT-116", "value": "2.25 µM (inactive)"}, {"measurement": "GI50", "setting": "A498", "value": "10.5 µM (inactive)"}, {"measurement": "GI50", "setting": "COLO 205", "value": "> 100 µM (inactive)"}, {"measurement": "GI50", "setting": "SNB-75", "value": "4.43 µM (inactive)"}, {"measurement": "GI50", "setting": "UACC-257", "value": "> 100 µM (inactive)"}, {"measurement": "GI50", "setting": "RXF 393", "value": "3.43 µM (inactive)"}, {"measurement": "GI50", "setting": "CAKI-1", "value": "> 100 µM (inactive)"}, {"measurement": "GI50", "setting": "UO-31", "value": "> 100 µM (inactive)"}, {"measurement": "GI50", "setting": "MDA-MB-231", "value": "6.03 µM (inactive)"}, {"measurement": "GI50", "setting": "DU-145", "value": "> 100 µM (inactive)"}, {"measurement": "GI50", "setting": "NCI-H460", "value": "> 100 µM (inactive)"}, {"measurement": "GI50", "setting": "KM12", "value": "> 100 µM (inactive)"}, {"measurement": "GI50", "setting": "SK-OV-3", "value": "> 100 µM (inactive)"}, {"measurement": "GI50", "setting": "ACHN", "value": "> 100 µM (inactive)"}, {"measurement": "GI50", "setting": "U-251", "value": "10.3 µM (inactive)"}, {"measurement": "GI50", "setting": "MDA-N", "value": "> 100 µM (inactive)"}, {"measurement": "GI50", "setting": "LOX IMVI", "value": "> 100 µM (inactive)"}, {"measurement": "GI50", "setting": "MCF7", "value": "> 100 µM (inactive)"}]}
{"smiles": "C=C1OC(=O)[C@]2([C@@H](/C=C/C)C=CC(=O)[C@H]2O)[C@@H]1O", "values": [{"measurement": "GI50", "setting": "SNB-19", "value": "> 100 µM (inactive)"}, {"measurement": "GI50", "setting": "UACC-62", "value": "> 100 µM (inactive)"}, {"measurement": "GI50", "setting": "SF-295", "value": "> 100 µM (inactive)"}, {"measurement": "GI50", "setting": "SN12C", "value": "> 100 µM (inactive)"}, {"measurement": "GI50", "setting": "M14", "value": "> 100 µM (inactive)"}, {"measurement": "GI50", "setting": "A549", "value": "> 100 µM (inactive)"}, {"measurement": "GI50", "setting": "T47D", "value": "> 100 µM (inactive)"}, {"measurement": "GI50", "setting": "MDA-MB-435", "value": "> 100 µM (inactive)"}, {"measurement": "GI50", "setting": "786-0", "value": "> 100 µM (inactive)"}, {"measurement": "GI50", "setting": "Hs-578T", "value": "> 100 µM (inactive)"}, {"measurement": "GI50", "setting": "SF-539", "value": "> 100 µM (inactive)"}, {"measurement": "GI50", "setting": "NCI/ADR-RES", "value": "> 100 µM (inactive)"}, {"measurement": "GI50", "setting": "SF-268", "value": "> 100 µM (inactive)"}, {"measurement": "GI50", "setting": "HCC 2998", "value": "> 100 µM (inactive)"}, {"measurement": "GI50", "setting": "IGROV-1", "value": "> 100 µM (inactive)"}, {"measurement": "GI50", "setting": "HT-29", "value": "> 100 µM (inactive)"}, {"measurement": "GI50", "setting": "TK-10", "value": "> 100 µM (inactive)"}, {"measurement": "GI50", "setting": "CCRF-CEM", "value": "> 100 µM (inactive)"}, {"measurement": "GI50", "setting": "HCT-15", "value": "> 100", "unit": "µM"}, {"measurement": "GI50", "setting": "NCI-H522", "value": "> 100 µM (inactive)"}, {"measurement": "GI50", "setting": "SR", "value": "73.6 µM (inactive)"}, {"measurement": "GI50", "setting": "PC-3", "value": "> 100 µM (inactive)"}, {"measurement": "GI50", "setting": "OVCAR-5", "value": "> 100 µM (inactive)"}, {"measurement": "GI50", "setting": "RPMI-8226", "value": "> 100 µM (inactive)"}, {"measurement": "GI50", "setting": "SK-MEL-2", "value": "> 100 µM (inactive)"}, {"measurement": "GI50", "setting": "Malme-3M", "value": "> 100 µM (inactive)"}, {"measurement": "GI50", "setting": "HOP-62", "value": "> 100 µM (inactive)"}, {"measurement": "GI50", "setting": "OVCAR-3", "value": "> 100 µM (inactive)"}, {"measurement": "GI50", "setting": "MOLT-4", "value": "> 100 µM (inactive)"}, {"measurement": "GI50", "setting": "OVCAR-8", "value": "> 100 µM (inactive)"}, {"measurement": "GI50", "setting": "NCI-H23", "value": "> 100 µM (inactive)"}, {"measurement": "GI50", "setting": "HCT-116", "value": "> 100 µM (inactive)"}, {"measurement": "GI50", "setting": "K562", "value": "> 100 µM (inactive)"}, {"measurement": "GI50", "setting": "COLO 205", "value": "> 100 µM (inactive)"}, {"measurement": "GI50", "setting": "SNB-75", "value": "> 100 µM (inactive)"}, {"measurement": "GI50", "setting": "UACC-257", "value": "> 100 µM (inactive)"}, {"measurement": "GI50", "setting": "RXF 393", "value": "> 100 µM (inactive)"}, {"measurement": "GI50", "setting": "OVCAR-4", "value": "> 100 µM (inactive)"}, {"measurement": "GI50", "setting": "CAKI-1", "value": "> 100 µM (inactive)"}, {"measurement": "GI50", "setting": "HL-60", "value": "> 100 µM (inactive)"}, {"measurement": "GI50", "setting": "SK-MEL-28", "value": "> 100 µM (inactive)"}, {"measurement": "GI50", "setting": "UO-31", "value": "> 100 µM (inactive)"}, {"measurement": "GI50", "setting": "SK-MEL-5", "value": "> 100 µM (inactive)"}, {"measurement": "GI50", "setting": "MDA-MB-231", "value": "> 100 µM (inactive)"}, {"measurement": "GI50", "setting": "DU-145", "value": "> 100 µM (inactive)"}, {"measurement": "GI50", "setting": "NCI-H460", "value": "> 100 µM (inactive)"}, {"measurement": "GI50", "setting": "EKVX", "value": "> 100 µM (inactive)"}, {"measurement": "GI50", "setting": "KM12", "value": "> 100 µM (inactive)"}, {"measurement": "GI50", "setting": "NCI-H226", "value": "> 100 µM (inactive)"}, {"measurement": "GI50", "setting": "SK-OV-3", "value": "> 100 µM (inactive)"}, {"measurement": "GI50", "setting": "ACHN", "value": "> 100 µM (inactive)"}, {"measurement": "GI50", "setting": "SW-620", "value": "> 100 µM (inactive)"}, {"measurement": "GI50", "setting": "U-251", "value": "> 100 µM (inactive)"}, {"measurement": "GI50", "setting": "MDA-N", "value": "> 100 µM (inactive)"}, {"measurement": "GI50", "setting": "LOX IMVI", "value": "> 100 µM (inactive)"}, {"measurement": "GI50", "setting": "MCF7", "value": "> 100 µM (inactive)"}]}
